Values of other authors in patent US10478452B2, “Antiviral pharmaceutical composition for topical use” (QUIMICA LUAR SRL, priority 2015, dated 2019).

Details: according to some studies

For Nc1nc(O)c2ncn(COC(CO)CO)c2n1 [ganciclovir], the “concentrations of intracellular triphosphate ganciclovir relative to those of acyclovir” value is listed as “approximately ten-fold higher” and the “mean life of intracellular triphosphate” value is listed as “more than 24 hours”.
